# Data: US10385103B2, “Cell-permeable (ICP)-SOCS3 recombinant protein and uses thereof” (CELLIVERY THERAPEUTICS, INC., priority 2014, dated 2019)
# Entries after “also recorded” stand apart in the source; their conditions may differ.
# How the values were obtained:
# HepG2 cells [1] = test: Induction of apoptosis, Annexin V/7-AAD staining; format: cell-based, human
# Method: (§1) AGS cells (gastric carcinoma cell line) (American Type Culture Collection; ATCC) were seeded in a 12-well plate at a density of 1×10^5 cells/well, and then treated with 10 uM of aMTD/SD-fused SOCS3 for 14 hours. Cancer cell death was analyzed by Annexin V analysis. Annexin V/7-Aminoactinomycin D (7-AAD) staining was performed using flow cytometry according to the manufacturer's guidelines (BD Pharmingen, San Diego, Calif., USA). Briefly, cells were washed three times with ice-cold PBS. The cells were then resuspended in 100 μl of binding buffer and incubated with 1 μl of 7-AAD and 1 μl of annexin V-PE for 30 min in the dark at 37° C. Flow cytometric analysis was immediately performed using a guava easyCyte™ 8 Instrument (Merck Millipore, Darmstadt, Germany).
# Annexin V/7-Aminoactinomycin D (7-AAD) staining was performed using flow cytometry according to the manufacturer's guidelines (BD Pharmingen, San Diego, Calif., USA). Briefly, 1×10^6 cells were washed three times with ice-cold PBS. The cells were then resuspended in 100 μl of binding buffer and incubated with 1 μl of 7-AAD and 1 μl of […] for 30 min in the dark at 4° C. Flow cytometric analysis was immediately performed using a guava easyCyte™ 8 Instrument (Merck Millipore, Darmstadt, Germany). In this regard, Cisplatin® (IC50: 30 μM) was used as a reference drug.
# (§2) The effect of inducing apoptosis of Chang liver cells was measured in the same manner as in Example 11-2, except that as target cell lines, normal Chang liver cells and hepatocellular carcinoma cell lines, Hep3B, HepG2, Huh7, and SK-HEP-1 were used, and as a reference drug, 5-FU® (IC50: 40 μM) was used.
# [2] = tested on: HCCs (Hep3B, HepG2, Huh7 and SK-HEP-1); test: Inhibition of cell cycle progression (PI staining, flow cytometry); format: cell-based, human; conditions: reference drugs
# Method: To further determine the effect of iCP-SOCS3 on the tumorigenicity of hepatocellular carcinoma cells, we subsequently investigated whether iCP-SOCS3 regulates cell cycle progression in HCCs (Hep3B, HepG2, Huh7 and SK-HEP-1).
# HCCs and normal cells were treated with 10 uM protein (Non-CP-SOCS3 (HS3B) and iCP-SOSC3 (HM165S3B)) for 8 hrs. After the treatment, cells were washed twice with cold PBS and re-suspended in 1 ml cold PBS, fixed in cold 70% ethanol, washed with cold PBS twice and re-suspended in PI master mix (PI 10 ug/ml (SIGMA, USA), 50 ug/ml RNase A (Invitrogen, USA) in staining buffer) at a final cell density of 2×10^5 cell/ml. The cell mixtures were incubated 30 min in the dark at 4° C. Flow cytometric analysis was immediately performed using a guava easyCyte™ 8 Instrument (Merck Millipore, Darmstadt, Germany).
# [3] = read-out: IC50 (stated for reference drug); cited from earlier work
# Huh7 cells [4] = test: Induction of apoptosis, TUNEL assay; format: cell-based, human; conditions: 10 μM, 24 hr, 2% fetal bovine serum
# Method: Apoptotic cells were analyzed using terminal dUTP nick-end labeling (TUNEL) assay with In Situ Cell Death Detection kit TMR red (Roche, 4056 Basel, Switzerland). Cells were treated for 24 hr with 10 μM HS3B or HM165S3B proteins with 2% fetal bovine serum and apoptotic cells were visualized by TUNEL staining. Treated cells were washed with cold PBS two times, fixed in 4% paraformaldehyde (PFA, Junsei, Tokyo, Japan) for 1 hr at room temperature, and incubated in 0.1% Triton X-100 for 2 min on the ice. Cells were washed with cold PBS twice, and treated TUNEL reaction mixture for 1 hr at 37° C. in dark, washed cold PBS three times and observed by fluorescence microscopy (Nikon, Tokyo, Japan). Cisplatin® (IC50: 30 μM) was used for reference drug.
# HepG2 tumor = test: Anti-tumor activity in cell-derived xenograft model; conditions: iCP-SOCS3 IV 50 mg/kg every day; Cisplatin IP 4 mg/kg twice a week; 3 weeks
# Method: Female Balb/c^nu/nu mice (5-week-old, Doo-Yeol Biotech Co. Ltd. Korea) were subcutaneously implanted with Hep3B2.1-7 tumor block (1 mm^3) into the left back side of the mouse. […] Tumor size was monitored by measuring the longest (length) and shortest dimensions (width) once a day with a dial caliper, and tumor volume was calculated as width2×length×0.5.
# Then, tumor volumes were examined. […] Then, tumor volumes were examined.
# RAW 264.7 cells [5] = test: Quantitative cell-permeability of FITC-labeled aMTD- or rPeptide-fused CRA recombinant proteins (flow cytometry); format: cell-based; conditions: RAW 264.7 cells, 10 μM FITC-labeled recombinant protein, 1 hour
# How it was run: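 Uptake of fluorescently labeled, peptide-fused cargo proteins was quantified by flow cytometry (Guava, Millipore) and analyzed in FlowJo software. RAW 264.7 cells received 10 μM FITC-labeled protein for 1 hour at 37° C., were rinsed three times with cold PBS, and were trypsinized with 0.25% tripsin/EDTA for 20 minutes at 37° C. to remove bound protein before measurement. Permeability was expressed relative to reference proteins.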
# NIH3T3 cells [6] = test: Intracellular delivery and localization of aMTD-/rPeptide-fused CRA recombinant proteins (confocal laser scanning microscopy); format: cell-based, mouse; conditions: 10 μM FITC-labeled protein, 1 hour, 37
# Method: NIH3T3 cells were exposed to 10 μM of FITC-labeled protein for 1 hour at 37, and nuclei were counterstained with DAPI. Then, cells were examined by confocal laser scanning microscopy (FIG. 7). […] The intracellular localization of the fluorescent signal was determined by confocal laser scanning microscopy (LSM700, Zeiss, Germany; FIGS. 7 and 8).
# IL-6 = test: LPS/IFN-γ-induced cytokine secretion in peritoneal macrophages (cytometric bead array), IL-6; format: cell-based, C3H/HeJ mice; conditions: 10 μM protein; IFN-γ and LPS
# Method: (§3) Peritoneal macrophages were obtained from C3H/HeJ mice (Doo-Yeol Biotech Co. Ltd. Korea) Peritoneal macrophages were incubated with 10 μM SOCS3 recombinant proteins (1:HS3, 2:HM165S3, 3:HM165S3A and 4:HM165S3B, respectively) for 1 hr at 37° C. and then stimulated them with LPS (Lipopolysaccharide)(500 ng/ml) and/or IFN-γ (100 U/ml) without removing iCP-SOCS3 proteins for 3, 6, or 9 hrs. The culture media were collected, and the extracellular levels of cytokine (TNF-α, IL-6) were measured by a cytometric bead array (BD Pharmingen, San Diego, Calif., USA) according to the manufacturer's instructions.
# STAT1 = test: Inhibition of IFN-γ-induced STAT phosphorylation in PANC-1 cells (western blot), STAT1; format: cell-based; conditions: PANC-1, 10 ng/ml IFN-γ 15 min, 10 μM protein 2 hrs
# Method: (§4) PANC-1 Cells (KCLB, Seoul, South Korea) were treated with 10 ng/ml IFN-γ (R&D systems, Abingdon, UK) for 15 min and treated with either DMEM (vehicle) or 10 μM aMTD/SD-fused SOCS3 recombinant proteins for 2 hrs. The cells were lysed in RIPA lysis buffer (Biosesang, Seongnam, Korea) containing proteinase inhibitor cocktail (Roche, Indianapolis, Ind., USA), incubated for 15 min at 4° C., and centrifuged at 13,000 rpm for 10 min at 4° C. Equal amounts of lysates were separated on 10% SDS-PAGE gels and transferred to a nitrocellulose membrane. The membranes were blocked using 5% skim milk in TBST and for western blot analysis incubated with the following antibodies: anti-phospho-STAT1 (Cell Signaling Technology, USA) and anti-phospho-STAT3 (Cell Signaling Technology, USA), then HRP conjugated anti-rabbit secondary antibody (Santacruz).
# TNF-α = test: LPS/IFN-γ-induced cytokine secretion in peritoneal macrophages (cytometric bead array), TNF-α; format: cell-based, C3H/HeJ mice; conditions: 10 μM protein; IFN-γ and LPS
# Method: as §3
# NIH3T3 cells [7] = test: Intracellular delivery and localization of FITC-labeled SOCS3 recombinant proteins (confocal microscopy); format: cell-based, mouse; conditions: 10 μM FITC-labeled SOCS3 protein, 1 hour, 37° C.
# Method: (§5) To examine cell-permeability of SOCS3 recombinant protein, SOCS3 recombinant proteins were conjugated to 5/6-fluorescein isothiocyanate (FITC). RAW 264.7 (KCLB, Seoul, South Korea) (FIG. 20) or NIH3T3 cells (KCLB, Seoul, South Korea) (FIG. 21) were treated with 10 μM FITC-labeled SOCS3 recombinant proteins and cultivated for 1 hr at 37° C.
# (§6) After cultivation, the cells were washed three times with ice-cold PBS (Phosphate-buffered saline, Hyclone, USA) and treated with proteinase K (10 μg/mL, SIGMA, USA) to remove surface-bound proteins, and internalized proteins were measured by flow cytometry (FlowJo cytometric analysis software, Guava, Millipore, Darmstadt, Germany). Untreated cells (gray) and equimolar concentration of unconjugated FITC (FITC only, green)-treated cells were served as control (FIG. 20). Each of NIH3T3 cells was incubated for 1 hour at 37° C. with 10 μM FITC-labeled SOCS3 protein. For nuclear staining, a mixture of […] Mounting Medium (Vector laboratories, Burlingame, Calif.) and DAPI (4′,6-diamidino-2-phenylindole) was added to NIH3T3 cells, and visualized using a confocal laser microscope (LSM700, Zeiss, Germany) (FIG. 21).
# STAT3 = test: Inhibition of IFN-γ-induced STAT phosphorylation in PANC-1 cells (western blot), STAT3; format: cell-based; conditions: PANC-1, 10 ng/ml IFN-γ 15 min, 10 μM protein 2 hrs
# Method: as §4
# as §4, with “(vehicle) or 1, 5, 10 μM” for “(vehicle) or 10 μM”, “following antibodies: anti-phospho-STAT3 (Cell” for “following antibodies: anti-phospho-STAT1 (Cell Signaling Technology, USA) and anti-phospho-STAT3 (Cell”
# [8] = Solubility/yield of SOCS3 recombinant proteins expressed and purified from E. coli; format: physicochemical; conditions: expressed and purified in E. coli
# Method: Thereafter, the recombinant protein gene-introduced E. coli was inoculated in 7 ml of LB medium, and then incubated at 37° C. overnight. The E. coli was inoculated in 700 ml of LB medium and incubated at 37° C. until OD600 reached 0.6. To this culture medium, 0.6 mM of isopropyl-β-D-thiogalactoside (IPTG, Gen Depot, USA) was added as a protein expression inducer, followed by further incubation at 37° C. for 3 hours. This culture medium was centrifuged at 4° C. and 8,000 rpm for 10 minutes and a supernatant was discarded to recover a cell pellet. The cell pellet thus recovered was suspended in a lysis buffer (100 mM NaH2PO4, 10 mM Tris-HCl, 8 M Urea, pH 8.0), and cells were disrupted by sonication (on/off time: 30 sec/30 sec, on time 2 hours, amplify 40%), and centrifuged at 15,000 rpm for 30 min to obtain a soluble fraction and an insoluble fraction.
# After purification, the proteins were put in a SnakeSkin Dialysis Tubing bag (pore size: 10000 mw, Thermo scientific, USA) and then they were dialyzed by physiological buffer (DMEM). The strain lysate where protein expression was not induced, the strain lysate where protein expression was induced by addition of IPTG, and purified proteins were loaded on SDS-PAGE to analyze protein expression characteristics and expression levels (FIGS. 19 and 20).
# Solubility of aMTD/SD-fused SOCS3 proteins was scored on a 5 point scale compared with that of SOCS3 proteins lacking the solubilization domain.
# RAW 264.7 cells [9] = test: Cell-permeability of FITC-labeled SOCS3 recombinant proteins (flow cytometry); format: cell-based; conditions: 10 μM FITC-labeled protein, 1 hr, 37° C.
# Method: as §5
# In this regard, RAW 264.7 cells were cultured in a DMEM medium containing 10% fetal bovine serum (FBS, Hyclone, USA) and […] of 1% penicillin/streptomycin (Hyclone, USA).
# as §6
# HepG2 cells [10] = test: Cell-permeability of FITC-labeled SOCS3 recombinant proteins in hepatocellular carcinoma cells (flow cytometry); format: cell-based, human; conditions: 10 μM FITC-labeled protein, 1 hr, 37° C.
# Method: HepG2 cells (ATCC, Manassas, Va., USA) were seeded in a 12 well plate, grown to 90% confluence. Cells were treated with 10 μM FITC-labeled iCP-SOCS3 recombinant proteins and cultivated for 1 hr at 37° C.
# After cultivation, the cells were treated with proteinase K (10 ug/mL, SIGMA, USA) and washed three times with ice-cold PBS (Phosphate-buffered saline, Hyclone, USA) to remove surface-bound proteins, and internalized proteins were measured by flow cytometry (FlowJo cytometric analysis software, Guava, Millipore, Darmstadt, Germany). Untreated cells (gray) and equimolar concentration of unconjugated FITC (FITC only, green)-treated cells were served as control (FIG. 57).
# SK-Hep-1 cells = test: Induction of apoptosis, Annexin V/7-AAD staining; format: cell-based, human; conditions: example 20-2
# Method: as §1, §2
# Huh7 cells [11] = test: Induction of apoptosis, Annexin V/7-AAD staining; format: cell-based, human; conditions: example 20-2
# Method: as §1, §2
# Hep3B cells = test: Induction of apoptosis, Annexin V/7-AAD staining; format: cell-based, human; conditions: example 20-2
# Method: as §1, §2
compound,measurement,setting,value
"N.N.[Cl][Pt][Cl] [Cisplatin, reference compound]","induction of apoptosis (Annexin V), HepG2, dose dependence",HepG2 cells [1]; example 20-1,hardly induced apoptosis
same,amount of subG1,[2],hardly increased the amount of subG1
same,IC50,[3],30 µM
same,"induction of apoptosis (TUNEL), Huh7",Huh7 cells [4],hardly induced apoptosis
same,body weight / adverse effects,HepG2 tumor,remarkable weight loss
"YYNQSTCGGQCY [rP38, reference compound]",Relative Ratio to aMTD AVE,RAW 264.7 cells [5],0.3±0.04 fold
same,intracellular delivery and localization (internalized fluorescence signal),NIH3T3 cells [6],did not show internalized fluorescence signal
HS3: His-tagged SOCS3 recombinant protein lacking an aMTD and a SD [reference compound],effect on IL-6 secretion,IL-6,unchanged
same,IFN-γ-induced phosphorylation of STAT1,STAT1,STAT phosphorylation was readily detected
same,effect on TNF-α secretion,TNF-α,unchanged
same,intracellular delivery and localization,NIH3T3 cells [7],did not appear to enter cells
same,IFN-γ-induced phosphorylation of STAT3,STAT3,STAT phosphorylation was readily detected
same,solubility (tendency to precipitate),[8],largely insoluble; also recorded: less soluble
same,cell-permeability (protein uptake),RAW 264.7 cells [9],did not appear to enter cells
same,transduction into HepG2 cells,HepG2 cells [10],did not appear to enter cells
"O=c1[nH]cc(F)c(=O)[nH]1 [5-FU, reference compound]","induction of apoptosis (Annexin V), SK-HEP-1",SK-Hep-1 cells,hardly induced apoptosis
same,"induction of apoptosis (Annexin V), Huh7",Huh7 cells [11],hardly induced apoptosis
same,"induction of apoptosis (Annexin V), Hep3B",Hep3B cells,hardly induced apoptosis
same,"induction of apoptosis (Annexin V), HepG2",HepG2 cells [1]; example 20-2,hardly induced apoptosis
same,amount of subG1,[2],hardly increased the amount of subG1
same,IC50,[3],40 µM
